Measured values taken from patent publication US7601715B2, “Process for preparing triazole substituted azaindoleoxoacetic piperazine derivatives and novel salt forms produced therein” (Bristol-Myers Squibb Company, priority 2005, dated 2009).

Assay: Moisture-sorption isotherm (VTI SGA-100 Symmetric Vapor Analyzer)
Type: physicochemical
Settings: range from about 25% RH to about 75% RH at 25° C.; FIG. 8
Procedure: 10. Moisture-sorption isotherms were collected in a VTI SGA-100 Symmetric Vapor Analyzer using approximately 10 mg of sample. The sample was dried at 60° C. until the loss rate of 0.0005 wt %/min was obtained for 10 minutes. The sample was tested at 25° C. and 3 or 4, 5, 15, 25, 35, 45, 50, 65, 75, 85, and 95% RH. Equilibration at each RH was reached when the rate of 0.0003 wt %/min for 35 minutes was achieved or a maximum of 600 minutes.

## O=C(C(=O)N1CCN(C(=O)c2ccccc2)CC1)c1c[nH]c2c(-n3ccnn3)ncc(F)c12
  weight gain / weight water uptake (moisture-sorption isotherm): about 0.1%
